Two molecules from patent publication US20250041382A1, “ANTIVIRAL COMPOSITION COMPRISING OCTOMININ” (priority 2023, published 2025) can be followed below.

In one data set the test system is VHSV (F1Wa05 strain). The data set can be described thus: Cytopathic effect (CPE) reduction assay, VHSV in FHM cells. The method, then: (§1) Specifically, three major fish pathogenic viruses VHSV (F1Wa05 strain), IHNV (RtPy91 strain), and IPNV (VR299 strain) were used to study the antiviral activity of Octominin. Octominin at various concentrations reacted with an equal amount of virus (infectious titer: 200 TCID50/mL) at 15° C. for 1 hour. Thereafter, the reactant was overlaid onto quadruplicate FHM cells in a 96-well plate (1×10^5 cells/mL) and incubated for 96 hours.
(§2) CPE was scored by optical microscopy using a DIAPHOT 300 inverted microscope (Nikon Cooperation, Tokyo, Japan) (score 0, 0% CPE; score 1, 10 to 20% CPE; score 2, 30 to 40% CPE; score 3, 50 to 60% CPE; score 4, 70 to 80% CPE; and score 5, 90 to 100%). The results were expressed as a 50% effective concentration (EC50) and calculated using Microsoft Excel software. Ribavirin, a known broad-spectrum antiviral agent, was used as a positive control group. The antiviral activity of Octominin was evaluated by calculation using Equation SI (selective index)=CC50/EC50.

A short description of data set [1]: in vitro. The data set is classed as cell-based.
Another data set deals with IPNV (VR299 strain). The data set is described as follows: microbe, parasite or virus in culture. The method, then: as §1, §2
The test system of a further data set is IHNV (RtPy91 strain). The data set can be described thus: microbe, parasite or virus in culture. The method, then: as §1, §2
A short description of data set [2]: in vitro. The data set is classed as cell-based. As to conditions: fathead minnow.
[3] abbreviates: fathead minnow (Pimephales promelas), 96 h.

Molecules are shown by their SMILES. Several values for one entry are separate records, joined by “and”; a condition that tells them apart may be missing. Equal entries are not always repeated. Peptide text beside a SMILES is read from it.

Take `CC[C@H](C)[C@H](NC(=O)[C@H](C)NC(=O)[C@H](CCCCN)NC(=O)CNC(=O)[C@H](C)NC(=O)[C@H](Cc1c[nH]cn1)NC(=O)[C@@H](NC(=O)[C@H](C)NC(=O)CNC(=O)[C@H](CCCNC(=N)N)NC(=O)[C@@H](NC(=O)[C@H](CC(C)C)NC(=O)[C@H](Cc1c[nH]c2ccccc12)NC(=O)CN)[C@@H](C)CC)[C@@H](C)CC)C(=O)N[C@@H](Cc1c[nH]cn1)C(=O)NCC(=O)N[C@@H](CC(C)C)C(=O)N[C@H](C(=O)N[C@@H](Cc1c[nH]cn1)C(=O)N[C@@H](CCCNC(=N)N)C(=O)N[C@@H](CCCNC(=N)N)C(=O)N[C@@H](CCCNC(=N)N)C(=O)N[C@@H](Cc1c[nH]cn1)C(=O)O)[C@@H](C)CC` [Octominin] (H-GWLIRGAIHAGKAIHGLIHRRRH-OH): the “SI (selective index)=CC50/EC50” value worked out at 2.9 in the data set with VHSV (F1Wa05 strain) (setting [3]); 2.0 in the data set with IPNV (VR299 strain) (Chinook salmon (Oncorhynchus tshawytscha), 96 h); 4.9 with IHNV (RtPy91 strain) (setting [3]). Moreover, in the data set “in vitro [1]” (Chinook salmon (Oncorhynchus tshawytscha)), the CC50 is 1870 µg/mL and 990 µM.

`NC(=O)c1ncn([C@@H]2O[C@H](CO)[C@@H](O)[C@H]2O)n1` [Ribavirin]: the EC50 in the data set on VHSV (F1Wa05 strain) (Viral hemorrhagic septicemia virus, 96 h) came out at 270 nM; in the data set with IPNV (VR299 strain) (Infectious pancreatic necrosis virus, CHSE-214), 750 nM; in the data set on IHNV (RtPy91 strain) (Infectious hematopoietic necrosis virus, 96 h), 550 nM. The selectivity ratio at 96 h in the data set on VHSV (F1Wa05 strain) (fathead minnow, FHM cells infected with VHSV (F1Wa05 strain)) is 3560; in the data set on IPNV (VR299 strain) (Chinook salmon) it was 162; in the data set with IHNV (RtPy91 strain) (fathead minnow) it was 1750. Moreover, the CC50 in the data set “in vitro [1]” (Chinook salmon) came to 121000 nM; in the data set “in vitro [2]”, 962000 nM.
